According to patent US7253177B2, “Synthesis and antimalarial activity of pyrrolo[3,2-f]quinazoline-1,3-diamine derivatives” (United States of America as Represented by the Secretary of …, priority 2004, dated 2007):
Several values for one entry are separate records, joined by “and”; a condition that tells them apart may be missing. Equal values may be shown once.

How the values were obtained:
P. falciparum FVO = experiment: Antimalarial activity against P. falciparum in Aotus monkey; type: in vivo, Plasmodium falciparum; conditions: 1 mg/kg once a day x three days, cured = parasitemia free for 100 days post treatment
Procedure: (e). Toxicity Study in Aotus monkey: Protocol: Two malaria double cured Aotus weighing 1027-695 grams respectively received single dose of 3 mg/kg orally of the two compounds 2b and 3e. The monkeys were weighed and pre-bleed for CBC and Chemistry (ALT, BUN, Creatinine) determination, and again three, seven and 15 days post treatment. Signs of toxicity such as anorexia, vomiting, diarrhea or behavior changes were recorded. […] (f). Antimalarial Activity against P. falciparum in Aotus monkey: Protocol: Six (6) malaria naive Aotus lemurinus lemurinus (weigh 787-978 grms) were divided into two groups of two Aotus each plus two controls (MN13177 male and MN 13153 male) and infected with 5×10^6 P. falciparum FVO malaria parasites with 1 ml of an appropriate dilution in RPMI media intravenously on the saphenous vein. When their parasitemia reached 5×10^4 parasites/ul, treatment was started. Giemsa-stained thick blood smears were prepared daily with a prick in the ear marginal vein and parasites enumerated by the Earle and Perez method. Group 1 Aotus received 3e at 1 mg/kg once a day×three days. Group 2 Aotus received 2b at 1 mg/kg once a day×three days. The monkeys were weight and pre-bled for CBC and Chemistry (ALT, BUN, Creatinine) determination, and on day 4 post-treatmetne (PT). Bleedings for Pk determinations were carried out on day 1 PT at time 0, 1 hr, 7:30 hr and 24 hr PT. […]

P. vivax AMRU-1 strain = experiment: Antimalarial activity against P. vivax in Aotus monkey; type: in vivo, Plasmodium vivax; conditions: for # Monkey Cured/# Monkey Used, P. vivax: cured = parasitemia free for 100 days post treatment; for outcome against P. vivax at 1 and 3 mg/kg/day x3: po, antifolate-resistant clone with four DHFR mutations
Procedure: (e). Toxicity Study in Aotus monkey: Protocol: Two malaria double cured Aotus weighing 1027-695 grams respectively received single dose of 3 mg/kg orally of the two compounds 2b and 3e. The monkeys were weighed and pre-bleed for CBC and Chemistry (ALT, BUN, Creatinine) determination, and again three, seven and 15 days post treatment. Signs of toxicity such as anorexia, vomiting, diarrhea or behavior changes were recorded. […] (f). Antimalarial Activity against P. falciparum in Aotus monkey: Protocol: Six (6) malaria naive Aotus lemurinus lemurinus (weigh 787-978 grms) were divided into two groups of two Aotus each plus two controls (MN13177 male and MN 13153 male) and infected with 5×10^6 P. falciparum FVO malaria parasites with 1 ml of an appropriate dilution in RPMI media intravenously on the saphenous vein. When their parasitemia reached 5×10^4 parasites/ul, treatment was started. Giemsa-stained thick blood smears were prepared daily with a prick in the ear marginal vein and parasites enumerated by the Earle and Perez method. Group 1 Aotus received 3e at 1 mg/kg once a day×three days. Group 2 Aotus received 2b at 1 mg/kg once a day×three days. The monkeys were weight and pre-bled for CBC and Chemistry (ALT, BUN, Creatinine) determination, and on day 4 post-treatmetne (PT). Bleedings for Pk determinations were carried out on day 1 PT at time 0, 1 hr, 7:30 hr and 24 hr PT. Group 1 (receiving 3e) animals cleared the parasitemias on day 3 post treatment (PT) and remained negative up to 100 days PT. In group 2 (receiving 2b), one animal cleared on day 3 PT and the other one on day 4 PT remaining negative up to 100 days PT. […] (g). Antimalarial Activity against P. vivax in Aotus monkey: Protocol: Fourteen (14) P. falciparum cured Aotus l. lemurinus monkeys (male and female) (weight 700-925 grms) were infected intravenously with 5×10^6 parasites of the P. vivax AMRU-1 strain diluted in RPMI media obtained from a donor and divided into two larger groups of 6 monkeys each (Group I and Group II) (2 monkeys per dose level), that received 3e and 6 monkeys (2 monkeys per dose level) that received 2b daily at 0.5, 1.0 and 3 mg/kg/day for a total of 3 days. Two monkeys were left has untreated controls. Treatment started when parasitemia reached 5,000 parasites×cc/mm on day 6 PI. Daily food intake was documented. Daily Giemsa-stained thick blood smears were prepared from a prick in the marginal ear vein and parasites enumerated by the Earle and Perez method. The animals were weighed at weekly intervals. Blood samples for Pk determination were collected at the following time points as follows: Day 0: CBC and chemistry panel (ALT. Creatinine and BUN); Day 4: CBC and chemistry Panel. CBC and chemistry panels were done the day prior to first dose and 24 hours after last dose and at weekly intervals thereafter. […] The other monkeys received 1 and 3 mg/kg of 3e remained negative until day 100 PT. In Group II, all monkeys except for one that received 3 mg/kg of 2b failed treatment and were retreated on day 3 PT with 3e at either 0.25, 0.5 or 1 mg/kg for three days. In the monkeys that received re-treatment at 0.25 mg/kg, one cleared on day 4 PT but needed to be treated with Mefloquine on day 8 PT due to a low platelet count. The other animals that had not been cleared by day 6 PT were treated with Mefloquine. […] P. vivax is known to be very drug resistant to antifolates. (h). Presumptive Causal Prophylactic Test against P. cynomolgi in Rhesus monkey: Protocol: […]

| Structure (SMILES) | # Monkey Cured/# Monkey Used, P. falciparum (P. falciparum FVO) | activity against P. vivax at 0.5 and 1 mg/kg x3 (P. vivax AMRU-1 strain) | # Monkey Cured/# Monkey Used, P. vivax (P. vivax AMRU-1 strain; 0.5 mg/kg/day x 3 days) | # Monkey Cured/# Monkey Used, P. vivax (P. vivax AMRU-1 strain; 1 mg/kg/day x 3 days) | # Monkey Cured/# Monkey Used, P. vivax (P. vivax AMRU-1 strain; 3 mg/kg/day x 3 days, 3 mg/kg/day) | outcome against P. vivax at 1 and 3 mg/kg/day x3 (P. vivax AMRU-1 strain) | outcome against P. vivax at 0.5 mg/kg (P. vivax AMRU-1 strain; 0.5 mg/kg/day x 3 days, two monkeys) | # Monkey Cured/# Monkey Used, P. vivax (P. vivax AMRU-1 strain; 3 mg/kg/day x 3 days) | remained negative until day PT (P. vivax AMRU-1 strain; P. vivax, 1 and 3 mg/kg x 3 days) |
| --- | --- | --- | --- | --- | --- | --- | --- | --- | --- |
| CCOC(=O)Nc1nc(NC(=O)OCC)c2c(ccc3c2ccn3Cc2ccccc2C(F)(F)F)n1 [Compound 2b] | 2/2 | not active | 0/2 | 0/2 | one out of two and 1/2 | less active |  |  |  |
| CC(=O)N(C(C)=O)c1nc(N(C(C)=O)C(C)=O)c2c(ccc3c2ccn3Cc2ccccc2C(F)(F)F)n1 [Compound 3e, 1,3-Bis(diacetylamino)-7-(2-trifluoromethyl)benzyl-7H-pyrrolo[3,2-f]quinazoline] | 2/2 |  | 0/2 | 2/2 |  | cured and 4/4 | suppressed the parasitemia but needed re-treatment on day 10 PT | 2/2 | 100 days |
